According to patent US20250154165A1, “MULTIANTENNARY GLYCOLIPID MIMETICS” (CONSEJO SUPERIOR DE INVESTIGACIONES CIENTÍFICAS (CSIC), priority 2021, published 2025):

How the values were obtained:
[1] = tested on: LPS-induced inflammation in B6 mice; test: Suppression of LPS-induced inflammation in vivo; settings: injected twice in a half hour time after LPS-treatment (FIG. 3)
Procedure: FIG. 3. […] The in vivo capability of compound 12 in suppressing LPS-induced inflammation in B6 mice was assessed as indicated in the scheme.
To determine the anti-inflammatory function in vivo, we assessed the capability of compound 12 in suppressing LPS-induced inflammation in B6 mice.

Splenocytes = test: Immune-stimulating function of compounds alone (splenocytes in vitro); type: cell-based, mouse
Procedure: FIG. 6. […] Splenocytes were treated with the compounds of the invention alone to assess the immune-stimulating function of the compounds. Compounds 12, 18, 22, 27, and 29 induced significant IFNγ secretion, and compound 8 induced significant IL-4 secretion.
The whole spleen was surgically removed from a mouse and mechanically dissociated into a single cell suspension of splenocytes, which were then cultured in the complete RPMI 1640 medium (cRPMI). Human peripheral blood mononuclear cells (PBMCs) from healthy volunteers were collected from whole blood through gradient-centrifugation with Histopaque-1077 (Sigma-Aldrich).
Splenocytes were treated with the compounds of the invention alone to assess the immune-stimulating function of the compounds by measuring their ability to promote the secretions of IFN-γ and IL-4.

[2] = tested on: OVA-induced AHR mouse model; test: Suppression of OVA-induced airway inflammation in vivo (IL-13 and IL-4 in BALF and lungs); settings: OVA-induced AHR experiment
Procedure: FIG. 8. […] The bronchoalveolar lavage fluid (BALF) from mice in the OAV-induced AHR experiment was examined forth IL-13 and IL-4 levels.
FIG. 9. […] The lungs from mice in the OAV-induced AHR experiment was examined for their IL-13 and IL-4 protein level.
FIG. 10. […] The lungs from mice in the OAV-induced AHR experiment was examined for their IL-13 and IL-4 mRNA levels.
For ovalbumin (OVA) challenge, mice were sensitized intraperitoneally (i.p.) with 50 μg of OVA with 2% alhydrogel adjuvant (InvivoGen). Mice were challenged three times with 50 μg of OVA on day 7 post-sensitization, either daily or every other day. Mice were sacrificed the day after the last OVA challenge. The scheme of the OT-1 adoptive transfer mouse model for examining the proliferation of CD8^+ T cells in adjuvanting OVA challenge is described in FIG. 13.
Upon exposure of the trachea, the lungs were lavaged twice with 1 mL of PBS supplemented with 2% fetal calf serum (FCS). BALF was pooled and bronchoalveolar (BAL) cells were pelleted by centrifugation and fixed onto cytospin slides. The slides were stained with Diff-Quik solution (Polysciences Inc) and BAL differential cell count was performed.
Using the Th2 OVA-induced AHR mouse model, we assessed the capability of selected compounds 8, 12, 18, and 27 in suppressing Th2 inflammation.

B6 mice = test: Adjuvancy function in vivo (serum IFNγ and IL-4 after injection)
Procedure: FIG. 11. […] The adjuvancy capability of the selected compounds 8, 12, 18, 27, and 29 in vivo was assessed by measuring the serum level of IFNγ and IL-4 induced after injecting them into B6 mice.
Besides assessing the ability of the new compounds to suppress inflammation, we also looked into their function to act as adjuvants, i.e. their ability to promote desirable immunological trends in the development of vaccines. We measured the in vivo adjuvancy capability of selected compounds 8, 12, 18, 27, and 29 in inducing IFNγ and IL-4 in B6 mice (FIG. 11).

[3] = tested on: DC-maturation marker CD86 in the spleen of mice; test: DC maturation in vivo (CD86 mRNA in spleen); settings: mice injected with the compound (FIG. 12)
Procedure: FIG. 12. […] The capability of selected compounds 8, 12, 18, 27, and 29 in promoting DC maturation in vivo was assessed by the mRNA level of DC-maturation marker CD86 in the spleen of mice injected with the compounds of the invention.
The capability of selected compounds 8, 12, 18, 27, and 29 in promoting DC maturation in vivo was assessed by the mRNA level of DC-maturation marker CD86 in the spleen of mice injected with the compounds of the invention.

[4] = tested on: bone marrow-derived dendritic cells (BMDC) from MyD88 KO mice; test: MyD88 dependency of IL-12p40 production (BMDCs in vitro); type: cell-based; settings: BMDC from MyD88 KO mice compared with BMDC from wild-type mice; dose-dependent (FIG. 15)
Text: FIG. 15. […] The effect was dose-dependent, and the difference became more pronounced at a higher concentration.
To determine whether the adjuvancy function of the representative compound 12 is MyD88-dependent or not, we performed experiments with immune cells isolated from MyD88 knocked-out (KO) mice. […] Data are dose-dependent and differences become more pronounced at the higher concentrations. […] Taken together, the results support that compound 12 adjuvancy function is MyD88-dependent.

[5] = splenocytes treated with compound alone (FIG. 6)
[6] = bronchoalveolar lavage fluid (FIG. 8)
[7] = 2 hours after injection (FIG. 11)
[8] = 18 hours after injection (FIG. 11)

For `CCCCCCCCCCCCNC(=O)C(COC1C(O)C(O)C(O)C2COC(=O)N21)NC(=O)CCCCCCCCCCC` (centres unmarked) [Compound 12], the “level of IL-6 in sera” value [1] was “significantly suppressed”, the “level of TNFα in sera” value [1] was “significantly suppressed” and the Th1/Th2 bias (Splenocytes; concluded from IFNγ and IL-4 secretion of splenocytes (FIG. 6)) was “Th1-biased”. For the same compound, the IFNγ secretion (Splenocytes; [5]) was “effective in promoting the productions of IFNγ”, the IL-4 secretion (Splenocytes; [5]) was “not IL-4” and the “IL-4 level in BALF” value [2, 6] was “significantly suppressed”. For the same compound, the “IL-13 level in BALF” value [2, 6] was “significantly suppressed”, the “IL-4 mRNA level in lungs” value ([2]; lung mRNA (FIG. 10)) was “could significantly suppress” and the “IL-13 mRNA level in lungs” value ([2]; lung mRNA (FIG. 10)) was “significantly suppressed”. The “IL-4 protein level in lungs” value ([2]; lung protein (FIG. 9)) was “significantly suppressed”, the “IL-13 protein level in lungs” value ([2]; lung protein (FIG. 9)) was “significantly suppressed” and the “serum level of IFNγ induced” value (B6 mice; [7]) was “significant capability in inducing”. The “serum level of IL-4 induced” value (B6 mice; [7]) was “significant capability in inducing”, the “serum level of IFNγ induced” value (B6 mice; [8]) was “significant detectable level” and the “serum level of IL-4 induced” value (B6 mice; [8]) was “significant detectable level”. For the same compound, the “CD86 mRNA expression in the spleens of mice” value [3] was “significant increase” and the “IL-12p40 production in response to compound” value [4] was “severely curtailed”.
